Data taken from US9115145B2, “Tocotrienol derivatives and associated methods” (FIRST TECH INTERNATIONAL LIMITED, priority 2011, dated 2015).
Like-named read-outs stand apart in the source and are kept apart here.

What was measured:
[1] = tested on: MDA-MB-231 human breast cancer cells; test: Wound-healing assay (cell migration); assay type: cell-based; conditions: for IC50: MDA-MB-231, wound-healing assay, dose response, read-out: IC50 antimigratory activity; for inhibition at 5 µM: MDA-MB-231, 24 h, wound-healing assay
Method: The highly metastatic human breast cancer MDA-MB-231 cells were cultured in RPMI 1640 medium containing 10 mM HEPES, 4 mM L-glutamine, 10% fetal bovine serum, penicillin (100 IU/mL), and streptomycin (50 μg/mL), and grown in a 5% CO2 atmosphere at 37° C. Cells were plated onto sterile 24-well and allowed to recover for a confluent cell monolayer formed in each well (>95% confluence). Wounds were then inflicted to each cell monolayer using a sterile 200 μL pipette tip. Media were removed, cells monolayers were washed twice with PBS, and then fresh media containing test compounds were added to each well. Test compounds were prepared in DMSO at 5 μM concentration and added to the plates, each in triplicate using DMSO as negative control. The incubation was carried out for 24 h under serum-starved conditions, after which media was removed and cells were fixed and stained using a staining composition sold under the trade name Diff Quick (Dade Behring Diagnostics, Aguada, Puerto Rico). The stain comprised a fixative reagent containing 1.8 mg/L triarylmethane dye in methyl alcohol; a first solution of 1 g/L xanthene dye, buffer, and sodium azide (0.01%) as preservative; and a second solution of 1.25 g/L Thiazine dye mixture (0.625 g/L azure A and 0.625 g/L methylene blue) and buffer. The number of cells migrated on the scratched wound were counted under the microscope in three or more randomly selected fields (magnification: 400×). Final results are expressed as mean±SEM per 400× field. The wound-healing assay is a simple method for the study of directional cell migration in vitro.
Compounds were tested for their ability to inhibit the migration of the highly metastatic MDA-MB-231 human breast cancer cells in the wound-healing assay using the procedure described above. Compounds 6, 10, 12, 13, 24, 26, 27, and 29 inhibited the migration of more than 50% of the human breast cancer cells MDA-MB-231 in the wound healing assay at 5 μM dose. […] The antimigratory activity of tocotrienols may be enhanced by a terminal aromatic functionality. The presence of electron withdrawing group, such as nitro in Compound 29, may eliminate the antiproliferative activity yet retain the antimigratory activity of the compound. While the electron donating groups, such as OH and OMe found in Compounds 23 and 26, respectively, retained both antiproliferative and antimigratory activities.
Utilizing similar procedures follow-up testing was conducted on a variety of compounds using a range of compound concentrations. The results of follow-up antimigratory testing are shown in FIG. 35B and Table III below with IC50 values calculated using statistical software.

[2] = tested on: +SA mammary epithelial cells; test: MTT assay of +SA cells (antiproliferative activity); assay type: cell-based, mouse; conditions: for IC50: 24 hours treatment, read-out: IC50 antiproliferative activity against +SA mammary epithelial cells; for antiproliferative activity against +SA mammary tumor cells (in words): described from FIG. 32 / text
Method: The antiproliferative activities of Compounds 3-44 against the highly metastatic malignant +SA mammary epithelial cells were evaluated by MTT assay. Materials for the assay were purchased from Sigma Chemical Company (St. Louis, Mo.) unless otherwise stated. The highly malignant +SA mouse mammary epithelial cell line was serially passaged at subconfluent cell density. The +SA mammary tumor cell line was derived from an adenocarcinoma that developed spontaneously in a BALB/c female mouse. +SA cells were maintained in serum-free defined medium consisting of Dulbecco's modified Eagle's medium (DMEM)/F12 containing 5 mg/mL bovine serum albumin (BSA), 10 […], 100 U/mL soybean trypsin inhibitor, 100 U/mL penicillin G, 0.1 mg/mL streptomycin, […], and 10 ng/mL epidermal growth factor. For subculturing, cells were rinsed twice with sterile Ca2+ and Mg2+-free phosphate buffered saline (PBS) and incubated in 0.05% trypsin containing 0.025% EDTA in PBS for 5 min at 37° C. The released cells were centrifuged, resuspended in fresh media and counted using hemocytometer. A stock solution of the compounds was prepared in DMSO. Once dissolved, this solution was added to a small volume of sterile 10% BSA in water and incubated overnight at 37° C. This solution conjugated to BSA was used to prepare various concentrations (0-40 μM) of tocotrienol analogs. DMSO was added to all treatment media such that the final DMSO concentration was the same in all treatment groups within a given experiment and was always less than 0.1%. For cytotoxic studies, cells were seeded at a density of 5×10^4 cells/well (+SA cells) or 1×10^5 cells/well (CL-S1 cells) (6 wells/group) in 24-well culture plates and allowed to grow in their respective control media. After 3 days incubation period (approximately 70% confluency), cells were divided equally into various treatment groups and exposed to their respective treatments for a 24 hours incubation period. Following the 24 hours treatment period, cell viability was measured using the MTT assay.
+SA Mammary epithelial cell viable number was determined by a 3-(4,5-dimethylthiazol-2yl)-2,5-diphenyl tetrazolium bromide (MTT) colorimetric assay. On the assay day, treatment medium was replaced with fresh control medium containing 0.42 mg/mL MTT, and the cells in 24-well plates were incubated at 37° C. for 4 hours. Afterward, the medium was removed, and the MTT crystals were dissolved in isopropyl alcohol (1 mL/well). The optical density of each sample was read at 570 nm on a microplate reader (SpectraCount, Packard BioScience Company), against a blank prepared from cell-free cultures. The number of cells/well was calculated against a standard curve prepared by plating various concentrations of cells, as determined by hemocytometer, at the start of each experiment.
Differences among the various treatment groups in +SA cell cytotoxic studies were determined by analysis of variance (ANOVA) followed by Dunnett's t-test. The difference of P<0.05 was considered to be statistically significant as compared with vehicle-treated controls unless separately described. Linear regression analysis of treatment effects on viable cell number in growth and cytotoxicity studies was used to determine the 50% growth inhibition concentration (IC50) for individual treatments.

[3] = tested on: MCF7 human breast cancer cell line; test: MTT assay of MCF7 cells; assay type: cell-based; conditions: Homo sapiens, media containing 1% fetal bovine serum
Method: (§1) MDA-MB-231 and MCF7 cells were plated at a density of 8×10^3 cells/well and 10^4 cells/well in 96-well culture plates, respectively. The compounds were fed in serum free media containing 5% and 1% fetal bovine serum for MDA-MB-231 and MCF7 cells, respectively.

[4] = tested on: MDA-MB-231 human breast cancer cell line; test: MTT assay of MDA-MB-231 cells; assay type: cell-based; conditions: Homo sapiens, media containing 5% fetal bovine serum
Method: as §1

[5] = tested on: MCF 10A non-tumorigenic mammary epithelial cells; test: MTT assay of MCF10A cells; assay type: cell-based, human; conditions: for IC50: Homo sapiens; for Selectivity index: IC50 for MCF 10A divided by IC50 for +SA cell line
Method: MCF 10A (ATCC cat # CRL-10317) normal human non-tumorigenic mammary epithelial cells were maintained in serum-free defined medium consisting of Dulbecco's modified Eagle's medium (DMEM)/F12 containing 5% horse serum, 1% penicillin/streptomycin, 0.5 μg/mL hydrocortisone, 100 ng/mL cholera toxin, 10 μg/mL insulin, and 20 ng/mL epidermal growth factor (rhEGF). For subculturing, cells were rinsed twice with sterile Ca2+ and Mg2+-free phosphate buffered saline (PBS) and incubated in 0.25% trypsin containing 0.025% EDTA in PBS for 5 min at 37° C. The released cells were centrifuged, re-suspended in fresh media and counted using a hemocytometer. For testing, MCF 10A cells were plated at a density of 10×10^4 cells/well. A stock solution of the compounds was prepared in DMSO. DMSO was added to all treatment media such that the final DMSO concentration was the same in all treatment groups within a given experiment and was always less than 0.1%. The compounds were fed in serum free media. MCF10A mammary epithelial cell's viable number was determined by MTT colorimetric assay. […] IC50 values were calculated by non-linear regression using statistical software. The selectivity index indicated in the table represents the IC50 value for the MCF 10A cell line divided by the IC50 value for the +SA cell line.

[6] = MCF-10A, MCF10A cells, Table II, non-linear regression, read-out: MCF10A (IC50)
[7] = MCF 10A non-tumorigenic cells, Table I, read-out: IC50 MCF 10A

CC(C)=CCC/C(C)=C/CC/C(C)=C/CC[C@]1(C)CCc2cc(O)cc(C)c2O1 [Compound 2, δ-tocotrienol, reference compound]
IC50 [1]: > 40 µM
IC50 [2]: 3 µM

CC(C)=CCC/C(C)=C/CC/C(C)=C/CC[C@]1(C)CCc2c3c(c(C)c(C)c2O1)OCN(Cc1ccccc1)C3 [Compound 6, (R)-2-benzyl-5,6,8-trimethyl-8-((3E,7E)-4,8,12-trimethyltrideca-3,7,11-trienyl)-1,2,3,8,9,10-hexahydrochromeno[5,6-e][1,3]oxazine]
inhibition at 5 µM ([1]; Homo sapiens): > 50%
IC50 [3]: > 20 µM
IC50 [4]: 27.3 µM
IC50 ([2]; Mus musculus, +SA cell): 1.2 to 2.2 µM
antiproliferative activity against +SA mammary tumor cells (in words) [2]: inactive

CC(C)=CCC/C(C)=C/CC/C(C)=C/CC[C@]1(C)CCc2c3c(c(C)c(C)c2O1)OCN(CC1CCNCC1)C3 [Compound 16, (R)-5,6,8-trimethyl-2-(piperidin-4-ylmethyl)-8-((3E,7E)-4,8,12-trimethyltrideca-3,7,11-trienyl)-1,2,3,8,9,10-hexahydrochromeno[5,6-e][1,3]oxazine]
IC50 [3]: > 20 µM
IC50 [4]: 0.8 µM
antiproliferative activity against +SA mammary tumor cells (in words) [2]: strong activity

COc1ccc(CCN2COc3c(C)c(C)c4c(c3C2)CC[C@@](C)(CC/C=C(\C)CC/C=C(\C)CCC=C(C)C)O4)cc1OC [Compound 23, (R)-2-(3,4-dimethoxyphenethyl)-5,6,8-trimethyl-8-((3E,7E)-4,8,12-trimethyltrideca-3,7,11-trienyl)-1,2,3,8,9,10-hexahydrochromeno[5,6-e][1,3]oxazine]
IC50 [3]: > 20 µM
IC50 [4]: > 50 µM
IC50 [5, 6]: 0.7 µM
IC50 [5, 7]: 0.7 µM
Selectivity index [5]: 0.39
antiproliferative activity against +SA mammary tumor cells (in words) [2]: very high activity

CC(C)=CCC/C(C)=C/CC/C(C)=C/CC[C@]1(C)CCc2c3c(c(C)c(C)c2O1)OCN(CCc1ccc(O)cc1)C3 [Compound 26, 4-(2-((R)-5,6,8-trimethyl-8-((3E,7E)-4,8,12-trimethyltrideca-3,7,11-trienyl)-9,10-dihydrochromeno[5,6-e][1,3]oxazin-2(1H,3H,8H)-yl)ethyl)phenol]
inhibition at 5 µM ([1]; Homo sapiens): > 50%
IC50 ([1]; Homo sapiens): 4.5 µM
IC50 [3]: 10.6 µM
IC50 [4]: > 5 µM
IC50 [5, 6]: 8.5 µM
IC50 [5, 7]: 8.5 µM
Selectivity index [5]: 5.67
antiproliferative activity against +SA mammary tumor cells (in words) [2]: very high activities

CC(C)=CCC/C(C)=C/CC/C(C)=C/CC[C@]1(C)CCc2c3c(cc(C)c2O1)OCN(Cc1cccc([N+](=O)[O-])c1)C3 [Compound 29, (R)-6,8-dimethyl-2-(3-nitrobenzyl)-8-((3E,7E)-4,8,12-trimethyltrideca-3,7,11-trienyl)-1,2,3,8,9,10-hexahydrochromeno[5,6-e][1,3]oxazine]
inhibition at 5 µM ([1]; Homo sapiens): > 50%
antiproliferative activity against +SA mammary tumor cells (in words) [2]: inactive
